Read-outs that look alike come from different tables or passages of the source.
Tests used:
[1] = test system: MDA-MB-453 cells; test: Cytotoxicity assay (WST-1 cell viability); conditions: for IC50: Homo sapiens
Protocol: (§1) Cell viability following drug treatments was assessed using WST-1 cell proliferation assay (Roche) Briefly, cells were plated into 96-well plates with 8,000 (HCT116) or 20,000 (MDA-MB-453) cells per well and allowed to attach overnight. Cells were then preincubated for 5 h in the presence or absence of 1 mM BSO. […] After 3 h of incubation at 37° C., the amount of formazan dye was quantified by measuring the optical density at 450 nm with a scanning multiwell spectrophotometer (PerkinElmer).
as §1, with “(Roche).” for “(Roche)”

[2] = target: T1, ΔSec human TrxR1 (Homo sapiens, UniProt Q16881); test: Electron paramagnetic resonance, DEPMPO spin trapping; format: biochemical; conditions: ΔSec-TrxR1, absence of auranofin
T1 construct: purchased Abnova
T1 sequence (Q16881 151-647, stated change not applied): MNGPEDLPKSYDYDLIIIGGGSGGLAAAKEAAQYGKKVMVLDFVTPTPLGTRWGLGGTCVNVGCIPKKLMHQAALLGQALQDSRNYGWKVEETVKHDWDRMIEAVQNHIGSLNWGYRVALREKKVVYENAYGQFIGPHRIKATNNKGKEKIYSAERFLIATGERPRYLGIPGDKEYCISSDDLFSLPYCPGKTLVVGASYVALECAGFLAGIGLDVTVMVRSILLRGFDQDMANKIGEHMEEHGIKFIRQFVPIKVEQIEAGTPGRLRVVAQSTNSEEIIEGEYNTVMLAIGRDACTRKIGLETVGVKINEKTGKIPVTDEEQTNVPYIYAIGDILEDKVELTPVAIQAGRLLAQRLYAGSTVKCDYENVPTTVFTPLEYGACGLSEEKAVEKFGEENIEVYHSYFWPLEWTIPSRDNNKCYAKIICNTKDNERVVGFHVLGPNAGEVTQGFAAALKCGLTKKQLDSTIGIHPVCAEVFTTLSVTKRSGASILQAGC

[3] = test system: Trx1/2 in MDA-MB-231 cells; test: Trx redox western blot analysis; format: cell-based, human; conditions: GSH-depleted MDA-MB-231, 100 μM, 6h, increases further at 18h
Protocol: Quantification is obtained directly from the relative intensities of the different bands. Two forms of the redox Western blot have been developed, separating on the basis of differing charge (thiols are modified with a charged alkylating reagent) or mass (thiols are modified with a high-mass alkylating reagent). Redox analysis of the mitochondrial compartment is performed using a redox Western blot analysis of thioredoxin-2 (Trx2). Trx2 is exclusively found in mitochondria, so an analysis of a cell or tissue extract provides specific information on redox in the mitochondria without fractionation. Analysis is performed following derivatization with AMS. Trx2 contains two cysteine residues, and the addition of two molecules of AMS increases the mass by approximately 1000 Da. Oxidized and AMS derivatized forms are separated by non-reducing SDS polyacrylamide gel electrophoresis and detected by immunoblotting.

[4] = human, in vivo
Text: It was a single arm, multi dose, dose escalating trial in newly diagnosed GBM patients. The total number of patients was 43, with about 5 patients per cohort. Patients who tolerated radiation (XRT) and temozolomide (TMZ) were recruited. Inclusion criteria included completion of XRT and TMZ without grade 3 or 4 toxicity and labs within acceptable range within 6 weeks of completing XRT. The end points included safety, maximum tolerated dose (MTD), and signal of activity.
Using modified continual reassessment method, MTD was defined for metronomic and standard dose TMZ.

[5] = test system: HCT116 cells; test: Protein modification by Iniparib-biotin in cells (streptavidin-HRP blot, avidin pull-down LC-MS/MS); format: cell-based, human
Protocol: MDA-MB-453 and HCT116 cells were first pre-treated or not for 48 h with 1 mM BSO. Afterwards cells were incubated in serum-containing conditioned medium with increasing concentrations of Iniparib-biotin derivative for up to 4 hours.
Membranes were blotted with either Streptavidin-HRP (GE Healthcare), monoclonal antibody against GAPDH (Santa Cruz Biotechnology), polyclonal antibody raised against GSTP1 (Santa Cruz Biotechnology) or with MitoProfile® Total OXPHOS human antibody cocktail (Abcam). Detection of reactive bands was performed by enhanced chemiluminescence (West DURA substrate, Pierce, Thermo scientific).
BSO pretreated HCT116 cells were incubated for 4 h with 100 μM Iniparib-biotin. Then clarified octyl-glucoside lysates were combined with monomeric avidin-agarose and mixed overnight at 4° C. […] Final wash was performed with 0.15% octyl-glucoside, 50 mM NaCl, 10 mM Tris-HCl, pH 7.5 prior to Iniparib-biotin modified proteins' elution in 0.1 M glycine, pH 2.8, 20 min at 20° C. After pH adjustment to 8.5 by Ammonium Bicarbonate addition (50 mM final), eluted proteins were reduced (10 mM DTT, 30 min at 56° C.), alkylated (30 mM iodoacetamide, 30 min at 20° C.) and digested with trypsin (10 μg, overnight at 37° C.). Tryptic Iniparib-biotin modified peptides were further purified by monomeric avidin pull-down as described above except that the buffer used was 50 mM NaCl, 10 mM Tris-HCl, pH 7.5. After elution in 0.1 M glycine, pH 2.8, 20 min at 20° C., enriched Iniparib-biotin modified peptides were analyzed by LC-MS/MS. LC-MS/MS experiments were performed on a NanoAcquity UPLC (Waters) coupled to a hybrid LTQ Orbitrap Velos mass spectrometer (Thermo Fisher Scientific) equipped with a nanoelectrospray source. Tryptic digests were loaded onto an UPLC Trap column (Symmetry C18, 5 μm, 180 μm×20 mm, Waters) and washed with 0.2% formic acid at 20 μL/min for 5 min. […] The exact parent mass is the ^12C isotope ion mass of the most intense isotopic pattern detected on the high resolution Orbitrap MS parallel scan and included in the MS/MS selection window.

In the case of `NC(=O)c1ccc(I)c([N+](=O)[O-])c1` [Iniparib, 4-iodo-3-nitrobenzamide], the IC50 ([1]; MDA-MB-453, read-out: IC50 (cytotoxicity), MDA-MB-453, GSH depletion (Example 2)) is reported as 16.2 µM, the IC50 ([1]; MDA-MB-453, read-out: IC50 (cytotoxicity), MDA-MB-453, absence of BSO (Example 2)) is reported as 85 µM and the IC50 ([1]; MDA-MB-453, read-out: IC50 (cytotoxicity), MDA-MB-453 after GSH depletion with BSO (Example 1)) is reported as 17.8 ± 2.9 µM. For the same molecule, the IC50 ([1]; MDA-MB-453, read-out: IC50 (cytotoxicity), MDA-MB-453 without BSO pre-treatment, 48 h (Example 1)) was 84 ± 6.5 µM, the “augmentation of cytotoxicity by GSH depletion” value ([1]; MDA-MB-453, BSO vs no BSO) was 4 fold and the “DEPMPO/HOO• adduct signal” value [2] was “increase”. For the same molecule, the “DEPMPO/HO• adduct signal” value [2] was “modest increase”, the Trx oxidation status [3] was “accumulation of oxidized Trx” and the “DLT: fatigue” value [4] was 1. For the same molecule, the “DLT: hypersensitivity reaction” value [4] was 1, the “DLT: rash” value [4] was 1 and the “DLT: thromboembolic event” value [4] was 1. For the same molecule, the Fatigue [4] was 28 (65) No. (% of pts), the Nausea [4] was 18 (42) No. (% of pts) and the “additional grade 3 toxicities” value [4] was “neutropenia, lymphopenia, nausea, and elevated AST”. The Fatigue ([4]; 3 cycles (10 weeks each)) was 13 (65) No. (% of pts), the Nausea ([4]; 3 cycles (10 weeks each)) was 9 (45) No. (% of pts) and the Fatigue ([4]; 6 cycles (monthly)) was 15 (65) No. (% of pts). For the same molecule, the Nausea ([4]; 6 cycles (monthly)) was 9 (39) No. (% of pts).

With `O=C(CCCC[C@@H]1SC[C@@H]2NC(=O)N[C@@H]21)NCCNC(=O)c1ccc(I)c([N+](=O)[O-])c1` [Iniparib-biotin, 4-iodo-3-nitro-N-(2-(5-((3 aS,4S,6aR)-2-oxohexahydro-1H-thieno[3,4-d]imidazol-4-yl)pentanamido)ethyl)benzamide] the “cellular proteins bearing Iniparib adducts” value ([5]; BSO pretreated HCT116, 100 μM 4 h, MS/MS qualitative analysis) was “more than 200 cellular proteins”, the “protein labeling with Iniparib-biotin” value ([5]; HCT116 cells depleted of GSH, up to 100 μM, up to 4 h) was “strong protein labeling” and the “protein modifications by Iniparib-biotin” value ([5]; HCT116 cells not depleted of GSH) was “barely detectable”.
